According to patent US9006253B2, “Crystal of 2-(3,4-dichlorobenzyl)-5-methyl-4-oxo-3,4-dihydrothieno[2,3-D]pyrimidine-6-carboxylic acid” (ASKA Pharmaceutical Co., Ltd., priority 2010, dated 2015):
Values after ≈ are worked out from the molar mass of the structure shown. Read-outs that look alike come from different tables or passages of the source.

Columns and labels:
[1] = Thermal stability (decomposition product by HPLC, colour after heating); assay type: physicochemical; conditions: 6 hr; for amount of the decomposition product (decarboxylation substance of compound A): HPLC
Procedure: Form I crystal obtained in Example 1 and Form II crystal obtained in Example 2 and amorphous compound A obtained in Production Example 1 were heated at 100° C. for 6 hr or 200° C. for 6 hr, and the amount of the decomposition product 2-(3,4-dichlorobenzyl)-5-methyl-4-oxo-3,4-dihydrothieno[2,3-d]pyrimidine (decarboxylation substance of compound A) was measured by HPLC. In the HPLC measurement, the sample was suspended in a mobile phase, dissolved by adding 1 equivalent of aqueous sodium hydroxide and then applied.
HPLC Measurement Condition measuring apparatus: Waters Alliance HPLC system detector: ultraviolet absorption spectrophotometer (measurement wavelength 225 nm) column: XBridge C18 (Waters) column temperature: constant temperature near 30° C. mobile phase A: acetonitrile mobile phase B: 5 mmol/L ammonium hydrogen carbonate (pH 8.0) gradient method of mobile phase A and mobile phase B: mobile phase A 23% (0 to 15 min), mobile phase A 23%→55% (15 to 30 min), mobile phase A 55% (30 to 50 min)

[2] = Solubility in 0.5% aqueous Tween80 solution at 37° C.; assay type: physicochemical; conditions: for time at which near saturation was reached: stirring; for solubility: value of 3 hr
Procedure: Form I crystal obtained in Example 1, Form II crystal obtained in Example 2 and amorphous compound A obtained in Production Example 1 (each 50 mg) were suspended in 0.5% aqueous Tween80 solution (20 mL), sonicated, aqueous 0.5% Tween80 solution (180 mL) was added and the mixture was stirred at 37° C.
The solubility was measured by HPLC under the same conditions (isocratic method using acetonitrile/5 mmol/L ammonium hydrogen carbonate (pH 8.0) (27:73) for mobile phase) as in Experimental Example 1 at the time points of 0.5 hr, 1 hr, 2 hr, 3 hr, 4 hr, 5 hr, and 6 hr from the start of stirring. As a result, amorphous compound A reached near saturation at about 0.5 hr, Form I crystal reached near saturation at about 1 hr and Form II crystal reached near saturation at about 2 hr. Therefore, the value of 3 hr was taken as the solubility. The results are shown in Table 11 below together with the results of the following Experimental Example 3.

[3] = Dissolution rate (disc, Paddle Method); assay type: physicochemical; conditions: 100 mg disc (diameter 12 mm), 0.5% aqueous Tween80 solution 900 mL, 37° C., Paddle Method 50 rpm
Procedure: Form I crystal obtained in Example 1, Form II crystal obtained in Example 2 and amorphous compound A obtained in Production Example 1 (each 100 mg) were compression molded by a tableting machine for IR measurement having a metal mold pre-treated with magnesium stearate, and formed into discs (diameter 12 mm). Each disc was added to 0.5% aqueous Tween80 solution (900 mL, 37° C.), the concentration was measured every 10 minutes up to 1 hr, and every 1 hour after 1 hr up to 3 hr, by HPLC under the same conditions as in Experimental Example 1 (isocratic method using acetonitrile/5 mmol/L ammonium hydrogen carbonate (pH 8.0) (27:73) for mobile phase) while maintaining the temperature at 37° C. according to the dissolution test apparatus Paddle Method (50 rpm), and each dissolution rate was calculated. The results are shown in Table 11 below together with the results of the above-mentioned Experimental Example 2.

Dog absorption test = assay type: in vivo; conditions: 0.3 mg/kg oral administration, average
Procedure: Form I crystal, Form II crystal and amorphous form of compound A were subjected to a dog absorption test under the following conditions.
sample: except for amorphous form, samples of Form I crystal and Form II crystal sieved to have a particle size of 20 to 63 μm by wet classification (two kinds of sieves and flowing water were used) were used.
Preparation method: 25 mL of water was added to a sample (3 g), and the mixture was gently pulverized in a mortar, classified under pressurization, and draught-dried. As amorphous form, a sample pulverized in agate mortar was used.
method: 9 dogs, 3×3 crossover, 0.3 mg/kg oral administration

Photostability test = assay type: physicochemical; conditions: xenon lamp 18 million Lxs, exposed to light for 8 hr
Procedure: Form I crystal, Form II crystal and amorphous form of compound A were subjected to a photostability test under the following conditions. The results are shown in FIG. 17. light source: xenon lamp 18 million Lxs
conditions: sample (6 mg) was weighed in a transparent sample bottle, and exposed to light for 8 hr.
HPLC conditions: same as in Experimental Example 1

PDE9 = PDE9 (Homo sapiens, UniProt O76083); conditions: as described in WO 2006/135080; cited from earlier work
PDE5 = PDE5 (Homo sapiens, UniProt O76074); conditions: as described in WO 2006/135080; cited from earlier work

Chain of PDE9 (O76083 whole entry): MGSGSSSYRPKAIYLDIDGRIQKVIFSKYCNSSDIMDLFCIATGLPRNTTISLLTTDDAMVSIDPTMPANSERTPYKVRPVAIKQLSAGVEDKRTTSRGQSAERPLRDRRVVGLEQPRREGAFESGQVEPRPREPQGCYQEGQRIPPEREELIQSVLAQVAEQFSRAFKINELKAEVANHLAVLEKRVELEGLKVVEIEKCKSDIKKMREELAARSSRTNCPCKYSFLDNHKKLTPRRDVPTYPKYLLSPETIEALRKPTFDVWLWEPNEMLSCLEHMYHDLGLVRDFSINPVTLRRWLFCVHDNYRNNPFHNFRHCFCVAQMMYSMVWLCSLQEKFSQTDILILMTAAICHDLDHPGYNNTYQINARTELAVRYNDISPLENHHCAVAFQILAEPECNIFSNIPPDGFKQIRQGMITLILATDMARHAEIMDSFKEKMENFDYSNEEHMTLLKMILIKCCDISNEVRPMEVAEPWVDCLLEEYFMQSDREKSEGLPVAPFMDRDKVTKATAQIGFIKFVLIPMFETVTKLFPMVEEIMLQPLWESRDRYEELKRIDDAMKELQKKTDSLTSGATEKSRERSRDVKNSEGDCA

Row | SMILES | color of sample ([1]; heated at 100° C.) | amount of the decomposition product (decarboxylation substance of compound A) ([1]; heated at 100° C.) | color of sample ([1]; heated at 200° C.) | amount of the decomposition product (decarboxylation substance of compound A) ([1]; heated at 200° C.) | time at which near saturation was reached [2] | solubility [2] | dissolution rate [3] | AUC0-t (Dog absorption test) | AUCinf (Dog absorption test) | Cmax (Dog absorption test) | photostability (Photostability test) | MRT (Dog absorption test) | T1/2 (Dog absorption test) | Tmax (Dog absorption test) | also measured
1 | Cc1c(C(=O)O)sc2nc(Cc3ccc(Cl)c(Cl)c3)[nH]c(=O)c12 [Form I crystal, 2-(3,4-dichlorobenzyl)-5-methyl-4-oxo-3,4-dihydrothieno[2,3-d]pyrimidine-6-carboxylic acid] | white | 0% | slight brown | 0.05%, | about 1 hr | 15 µg/mL (≈ 40.6 µM) | 0.0017 µg/mL/min | 64.6 ng·h/mL | 65.6 ng·h/mL | 9.1 ng/mL | comparatively stable | – | – | – | half-life (Dog absorption test; in vivo, po, 0.3 mg/kg): 3.5 h; MRT (Dog absorption test; in vivo, po, 0.3 mg/kg, read-out: MRT): 6.73 h; Tmax (Dog absorption test; in vivo, po, 0.3 mg/kg, read-out: Tmax): 3.06 h
2 | Cc1c(C(=O)O)sc2nc(Cc3ccc(Cl)c(Cl)c3)[nH]c(=O)c12 [Amorphous form, 2-(3,4-dichlorobenzyl)-5-methyl-4-oxo-3,4-dihydrothieno[2,3-d]pyrimidine-6-carboxylic acid] | slight brown | 0.006%, | pale-brown | 3.42%, | – | 37 µg/mL (≈ 100 µM) | 0.0052 µg/mL/min | 62.9 ng·h/mL | 63.4 ng·h/mL | 10.3 ng/mL | – | 6.31 h | 3.05 h | 3.78 h | time at which near saturation was reached ([2]; listed as amorphous compound A): about 0.5 hr; impurity after light exposure (Photostability test; HPLC): exceeding 0.2%
3 | Cc1c(C(=O)O)sc2nc(Cc3ccc(Cl)c(Cl)c3)[nH]c(=O)c12 [Form II crystal, 2-(3,4-dichlorobenzyl)-5-methyl-4-oxo-3,4-dihydrothieno[2,3-d]pyrimidine-6-carboxylic acid] | white | 0% | slight brown | 0.07%, | about 2 hr | 10 µg/mL (≈ 27.1 µM) | 0.0011 µg/mL/min | 24.2 ng·h/mL | 24.2 ng·h/mL | 3.7 ng/mL | comparatively stable | 6.89 h | 3.32 h | 3.44 h | –
4 | Cc1c(C(=O)O)sc2nc(Cc3ccc(Cl)c(Cl)c3)[nH]c(=O)c12 [Compound A, 2-(3,4-dichlorobenzyl)-5-methyl-4-oxo-3,4-dihydrothieno[2,3-d]pyrimidine-6-carboxylic acid] | – | – | – | – | – | – | – | – | – | – | – | – | – | – | PDE9 inhibitory action (PDE9): high PDE9 inhibitory action; PDE5 inhibitory action (PDE5): mild PDE5 inhibitory action
